We go through 2 compounds from paper PMC8793334, “Validation of a System xc^– Functional Assay in Cultured Astrocytes and Nervous Tissue Samples” (Frontiers in Cellular Neuroscience, 2022).

pIC50: −log10 of the molar value.

Format in all cases: cell-based
For assay [1], the target named is T1, xCT (system xc–, cystine-glutamate exchanger) (Rattus norvegicus, UniProt A0A8I6AB70).
T1 construct: gene Slc7a11; with 4F2hc (Slc3a2)
Put plainly: inhibition of [3H]-L-glutamate uptake in Na+-free buffer, CHO-xCT cells, concentration-response.

In assay [2] the target is T2, xCT (system xc–, cystine-glutamate exchanger) (Mus musculus, UniProt Q9WTR6).
T2 construct: gene Slc7a11; native exchanger in cultured astrocytes and spinal cord crude synaptosomes, wild-type versus xCT–/–; with 4F2hc (Slc3a2)
T2 sequence (Q9WTR6 1-502): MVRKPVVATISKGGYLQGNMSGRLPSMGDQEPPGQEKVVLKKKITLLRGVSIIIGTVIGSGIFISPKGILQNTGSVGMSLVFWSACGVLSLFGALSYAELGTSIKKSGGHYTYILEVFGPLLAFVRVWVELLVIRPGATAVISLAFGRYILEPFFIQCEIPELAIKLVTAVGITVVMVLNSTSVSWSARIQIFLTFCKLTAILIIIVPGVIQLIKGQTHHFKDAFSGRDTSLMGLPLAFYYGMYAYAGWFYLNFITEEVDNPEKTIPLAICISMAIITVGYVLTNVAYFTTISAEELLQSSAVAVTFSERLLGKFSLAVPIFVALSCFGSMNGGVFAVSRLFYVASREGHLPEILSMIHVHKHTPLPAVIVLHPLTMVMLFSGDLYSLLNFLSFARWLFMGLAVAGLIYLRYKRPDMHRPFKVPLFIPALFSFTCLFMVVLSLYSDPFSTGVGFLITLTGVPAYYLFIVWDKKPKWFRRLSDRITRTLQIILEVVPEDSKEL
T2 sequence (P10852 1-526 partner): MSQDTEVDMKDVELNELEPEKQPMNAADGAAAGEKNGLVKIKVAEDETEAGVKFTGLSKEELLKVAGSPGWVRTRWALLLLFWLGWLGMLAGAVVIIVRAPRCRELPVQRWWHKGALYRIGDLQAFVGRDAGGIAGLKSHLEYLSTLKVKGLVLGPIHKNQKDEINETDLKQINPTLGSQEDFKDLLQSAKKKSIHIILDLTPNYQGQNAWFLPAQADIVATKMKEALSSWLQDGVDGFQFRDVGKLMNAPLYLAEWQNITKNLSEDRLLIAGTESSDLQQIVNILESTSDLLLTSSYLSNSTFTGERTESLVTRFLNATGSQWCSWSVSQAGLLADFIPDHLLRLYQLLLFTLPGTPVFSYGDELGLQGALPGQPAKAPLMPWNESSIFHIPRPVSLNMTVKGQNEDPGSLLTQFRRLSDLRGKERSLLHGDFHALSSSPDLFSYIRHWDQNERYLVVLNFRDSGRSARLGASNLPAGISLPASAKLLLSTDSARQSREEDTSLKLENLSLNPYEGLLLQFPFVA
Put plainly: radiolabeled substrate uptake in Na+-free buffer, knockout control.

In assay [3] the target is T1, xCT (system xc–, cystine-glutamate exchanger). Briefly: radiolabeled substrate uptake in Na+-free buffer, transfected versus non-transfected CHO cells.

T1 sequence (A0A8I6AB70 1-502): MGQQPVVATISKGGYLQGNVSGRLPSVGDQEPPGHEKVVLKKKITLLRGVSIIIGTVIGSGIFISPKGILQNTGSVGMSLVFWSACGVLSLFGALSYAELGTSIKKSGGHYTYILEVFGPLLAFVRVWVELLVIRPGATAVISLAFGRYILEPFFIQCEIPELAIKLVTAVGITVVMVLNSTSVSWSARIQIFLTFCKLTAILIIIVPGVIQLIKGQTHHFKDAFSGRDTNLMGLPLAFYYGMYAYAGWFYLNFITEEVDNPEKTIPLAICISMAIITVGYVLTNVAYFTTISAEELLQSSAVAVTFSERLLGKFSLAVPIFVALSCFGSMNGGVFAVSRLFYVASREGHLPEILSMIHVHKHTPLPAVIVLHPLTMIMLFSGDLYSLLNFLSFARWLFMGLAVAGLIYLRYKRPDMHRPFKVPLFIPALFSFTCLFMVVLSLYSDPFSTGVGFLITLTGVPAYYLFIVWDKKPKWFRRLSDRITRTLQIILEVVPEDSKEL

In general, pIC50 refers to the IC50 on a negative log10 scale, so that one unit is a factor of ten. A lower pIC50 goes with a large IC50. On to `N[C@@H](CCS(=O)(=O)O)C(=O)O` [HCA], for which the negative-log IC50 (pIC50) in assay [1] was 5.24.

With `N[C@@H](CCC(=O)O)C(=O)O` [L-glutamate], the “radiolabeled substrate uptake in Na+-free buffer, knockout control” value in assay [2] was “the uptake of [^3H]-L-glutamate was barely detectable in astrocytes derived from the transgenic mice lacking xCT”. In addition, the “radiolabeled substrate uptake in Na+-free buffer, transfected versus non-transfe” value in assay [3] is “[^3H]-L-glutamate uptake measured in the transfected cells was significantly higher as compared to non-transfected cells”.
